The target in assay [1] is T1, NLRP3 (Homo sapiens, UniProt Q96P20). Briefly: THP-1 cells pyroptosis assay (LPS + nigericin, resazurin read-out). Type of assay: cell-based. Also noted: Seed THP-1 cells (25,000 cells/well) containing 1.0 μg/ml LPS; host or cells: THP-1 cells. Particulars: NLRP3 inhibitory activity, 1 μg/ml LPS, 5 μM nigericin. The method, then:
The cells were routinely passaged and grown to confluency (˜10^6 cells/ml). On the day of the experiment, THP-1 cells were harvested and resuspended into RPMI medium (without FBS). The cells were then counted and viability (>90%) checked by Trypan blue (Sigma #T8154). […] To this diluted cell solution was added LPS (Sigma #L4524) to give a 1 μg/ml Final Assay Concentration (FAC). 40 μl of the final preparation was aliquoted into each well of a 96-well plate. The plate thus prepared was used for compound screening. The following method step-by-step assay was followed for compound screening. • 1. […] Incubate for 3 hrs at 37° C., 5% CO2 • 4. Add 5 μl nigericin (Sigma #N7143) (FAC 5 μM) to all wells • 5. Incubate for 1 hr at 37° C., 5% CO2 • 6. At the end of the incubation period, spin plates at 300×g for 3 mins and remove supernatant • 7. Then add 50 μl of resazurin (Sigma #R7017) (FAC 100 μM resazurin in RPMI medium without FBS) and incubate plates for a further 1-2 hrs at 37° C. and 5% CO2 • 8.
A general note: The colour change of resazurin is a common sign of viable cells or microbes.

In assay [2] the target is T1, NLRP3. Briefly: Human whole blood IL-1β release assay (LPS + nigericin, AlphaLisa). In kind it is cell-based. Also noted: Human whole blood in Li-heparin tubes was obtained from healthy donors; from tissue; host or cells: human whole blood from healthy donors. Particulars: NLRP3 inhibitory activity, 1 μg/ml LPS, 10 μM nigericin, read-out: HWB IC50. On the procedure: For systemic delivery, the ability to inhibit NLRP3 when the compounds are present within the bloodstream is of great importance. For this reason, the NLRP3 inhibitory activity of a number of compounds in human whole blood was investigated in accordance with the following protocol. Human whole blood in Li-heparin tubes was obtained from healthy donors from a volunteer donor panel. • 1. […] Incubate for 3 hrs at 37° C., 5% CO2 • 4. Add 10 μl nigericin (Sigma #N7143) (10 μM FAC) to all wells • 5. Incubate for 1 hr at 37° C., 5% CO2 • 6. At the end of the incubation period, spin plates at 300×g for 5 mins to pellet cells and remove 20 μl of supernatant and add to 96-well v-bottom plates for IL-1β analysis (note: these plates containing the supernatants can be stored at -80° C. to be analysed at a later date) • 7. IL-1β was measured according to the manufacturer protocol (Perkin Elmer-AlphaLisa IL-1 Kit A[…]-5000) • 8.

Counter-ions that a name gives are not always drawn. A value given as a limit tells only on which side of the number the result lay.

T1 sequence (Q96P20 whole entry): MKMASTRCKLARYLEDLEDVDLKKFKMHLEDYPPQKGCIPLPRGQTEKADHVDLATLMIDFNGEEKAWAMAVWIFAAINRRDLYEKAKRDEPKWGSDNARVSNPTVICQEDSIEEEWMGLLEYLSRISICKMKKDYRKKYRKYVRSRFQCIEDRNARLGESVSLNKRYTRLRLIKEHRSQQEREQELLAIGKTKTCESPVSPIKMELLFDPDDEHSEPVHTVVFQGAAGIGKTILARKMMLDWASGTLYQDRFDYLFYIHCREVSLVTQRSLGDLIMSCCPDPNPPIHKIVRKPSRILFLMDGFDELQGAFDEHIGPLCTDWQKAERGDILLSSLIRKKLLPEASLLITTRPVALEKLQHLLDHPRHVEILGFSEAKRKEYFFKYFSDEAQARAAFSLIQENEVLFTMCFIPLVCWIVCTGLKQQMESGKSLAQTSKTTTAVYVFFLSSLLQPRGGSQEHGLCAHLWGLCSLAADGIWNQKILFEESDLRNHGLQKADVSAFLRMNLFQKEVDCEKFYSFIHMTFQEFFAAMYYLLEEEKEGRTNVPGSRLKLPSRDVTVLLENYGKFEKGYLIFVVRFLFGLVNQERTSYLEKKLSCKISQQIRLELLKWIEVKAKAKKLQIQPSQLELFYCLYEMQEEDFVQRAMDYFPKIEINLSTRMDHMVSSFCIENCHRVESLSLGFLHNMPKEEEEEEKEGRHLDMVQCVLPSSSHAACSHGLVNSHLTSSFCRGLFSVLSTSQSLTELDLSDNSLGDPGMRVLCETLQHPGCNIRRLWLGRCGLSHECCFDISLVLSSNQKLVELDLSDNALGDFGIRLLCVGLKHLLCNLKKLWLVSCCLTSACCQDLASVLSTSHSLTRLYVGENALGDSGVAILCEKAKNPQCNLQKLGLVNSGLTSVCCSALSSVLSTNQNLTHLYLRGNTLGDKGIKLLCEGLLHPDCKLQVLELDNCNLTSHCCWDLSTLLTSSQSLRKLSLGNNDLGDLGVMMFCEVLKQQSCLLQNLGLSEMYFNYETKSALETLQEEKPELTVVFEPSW

As to `CC(C)c1cc(F)cc2c1C(C(=O)NS(=O)(=O)c1cc(C(C)(C)O)cs1)CC2(C)C` (single isomer, unassigned) [Example 8, 5-Fluoro-N-((4-(2-hydroxypropan-2-yl)thiophen-2-yl)sulfonyl)-7-isopropyl-3,3-dimethyl-2,3-dihydro-1H-indene-1-carboxamide, potassium salt (rotamer P1)], the IC50 (commonly the point on the concentration scale where inhibition reaches its midpoint) on NLRP3 [1] was in the range of 500 to 1000 nM; on NLRP3 [2] it was 1 to 5 µM.
On to `Cc1cc(C(C)(C)O)ccc1S(=O)(=O)NC(=O)Cc1c(C(C)C)cc(F)cc1C(C)C` [Example 2, 2-(4-Fluoro-2,6-diisopropylphenyl)-N-((4-(2-hydroxypropan-2-yl)-2-methylphenyl)sulfonyl)acetamide, potassium salt], for which the IC50 on NLRP3 [1] is 250 to 500 nM; on NLRP3 [2] it was greater than 10 µM.
For the compound `COc1cc(-c2cc(F)cc(C(C)C)c2CCC(=O)NS(=O)(=O)c2ccc(C(C)(C)O)cc2C)ccn1` [Example 3, 3-(4-Fluoro-2-isopropyl-6-(2-methoxypyridin-4-yl)phenyl)-N-((4-(2-hydroxypropan-2-yl)-2-methylphenyl)sulfonyl)propanamide], the IC50 on NLRP3 [1] was 1000 to 5000 nM; at NLRP3 [2] it was greater than 10 µM.
Take `CC(C)c1cc(F)cc2c1C(C(=O)NS(=O)(=O)c1ccn(C3CC3)n1)CCC2(C)C` (stereo not drawn) [Example 6, N-((1-Cyclopropyl-1H-pyrazol-3-yl)sulfonyl)-6-fluoro-8-isopropyl-4,4-dimethyl-1,2,3,4-tetrahydronaphthalene-1-carboxamide]: the concentration for half-maximal inhibition (IC50) fell in the range of 1000 to 5000 nM at NLRP3 [1] and 5 to 10 µM at NLRP3 [2].
For `[2H]C([2H])([2H])N(CCn1ccc(S(=O)(=O)NC(=O)Nc2c3c(cc4c2CCC4)CCC3)n1)C([2H])([2H])[2H]` [Example 12, 1-(2-(Bis(methyl-d3)amino)ethyl)-N-((1,2,3,5,6,7-hexahydro-s-indacen-4-yl)carbamoyl)-1H-pyrazole-3-sulfonamide, potassium salt], in that order: less than 250 nM and 0.5 to 1 µM.
As to `O=C(Nc1c2c(cc3c1CCC3)CCC2)NS(=O)(=O)c1cc[nH]n1` [Example 13, N-((1,2,3,5,6,7-Hexahydro-s-indacen-4-yl)carbamoyl)-1H-pyrazole-3-sulfonamide, potassium salt], the figures for the IC50 on NLRP3 [1] and at NLRP3 [2] were 1000 to 5000 nM and greater than 10 µM, respectively.
On the same counts, the results for `O=C(Nc1c2c(cc3c1CCC3)C=CC2)NS(=O)(=O)c1cc[nH]n1` [Example 14, N-((1,2,3,5-Tetrahydro-s-indacen-4-yl)carbamoyl)-1H-pyrazole-3-sulfonamide, potassium salt] are 500 to 1000 nM and 5 to 10 µM.
On to `CC(C)n1ccc(S(=O)(=O)NC(=O)Nc2c3c(cc4c2C(=O)CC4)CCC3)n1` [Example 15, 1-Isopropyl-N-((3-oxo-1,2,3,5,6,7-hexahydro-s-indacen-4-yl)carbamoyl)-1H-pyrazole-3-sulfonamide, potassium salt], for which the figures for the half-maximal inhibitory concentration (IC50) at NLRP3 [1] and at NLRP3 [2] were 1000 to 5000 nM and greater than 10 µM, respectively.
Take `C#CCCC1(CCn2ccc(S(=O)(=O)NC(=O)Nc3c4c(cc5c3CCC5)CCC4)n2)N=N1` [Example 16, 1-(2-(3-(But-3-yn-1-yl)-3H-diazirin-3-yl)ethyl)-N-((1,2,3,5,6,7-hexahydro-s-indacen-4-yl)carbamoyl)-1H-pyrazole-3-sulfonamide, potassium salt]: the results for the IC50 at NLRP3 [1] and on NLRP3 [2] were less than 250 nM and 5 to 10 µM, respectively.
Turning to `NC/C(=C\F)COc1ccc(S(=O)(=O)NC(=O)Nc2c3c(cc4c2CCC4)CCC3)cc1` [Example 17, 4-((2-(Aminomethyl)-3-fluoroallyl)oxy)-N-((1,2,3,5,6,7-hexahydro-s-indacen-4-yl)carbamoyl)benzenesulfonamide, 2,2,2-trifluoroacetate salt], the half-inhibitory concentration (IC50) on NLRP3 [1] lay in the range of 250 to 500 nM; at NLRP3 [2], 1 to 5 µM.
For `CCn1cc(S(=O)(=O)NC(=O)Nc2c3c(cc4c2CCC4)CCC3)nn1` [Example 19, 1-Ethyl-N-((1,2,3,5,6,7-hexahydro-s-indacen-4-yl)carbamoyl)-1H-1,2,3-triazole-4-sulfonamide, potassium salt], in that order: 250 to 500 nM and 0.5 to 1 µM.
On the same counts, the results for `CC(C)n1ccc(S(=O)(=O)NC(=O)Nc2c3c(cc4c2CCC4O)CCC3)n1` (stereo not drawn) [Example 21, N-((1-Hydroxy-1,2,3,5,6,7-hexahydro-s-indacen-4-yl)carbamoyl)-1-isopropyl-1H-pyrazole-3-sulfonamide] are 5000 to 10000 nM and 5 to 10 µM.
On the same counts, the results for `CC(C)n1ccc(S(=N)(=O)NC(=O)Cc2c3c(cc4c2CCC4)CCC3)n1` (stereo not drawn) [Example 24, 2-(1,2,3,5,6,7-Hexahydro-s-indacen-4-yl)-N-(1-isopropyl-1H-pyrazole-3-sulfonimidoyl)acetamide] are 1000 to 5000 nM and greater than 10 µM.
Turning to `CC(C)c1cccc(O[C@H]2CCOC2)c1NC(=O)NS(=O)(=O)c1ccn(C(C)C)n1` [Example 86, (S)-1-Isopropyl-N-((2-isopropyl-6-((tetrahydrofuran-3-yl)oxy)phenyl)carbamoyl)-1H-pyrazole-3-sulfonamide], on NLRP3 [1], the IC50 was in the range of 1000 to 5000 nM.
Same read-out and setting: the value for `CC(C)OS(=O)(=O)NC(=O)Nc1c2c(cc3c1CCC3)CCC2` [Example 87, Isopropyl (1,2,3,5,6,7-hexahydro-s-indacen-4-yl)carbamoylsulfamate, sodium salt] was 1000 to 5000 nM; that for `COc1cc(-c2ccc3c(c2NC(=O)NCc2nnn[nH]2)CCC3)ccn1` [Example 88, 1((1H-Tetrazol-5-yl)methyl)-3-(5-(2-methoxypyridin-4-yl)-2,3-dihydro-1H-inden-4-yl)urea] was 5000 to 10000 nM.
The same measure, in the same setting: under `CC(C)(O)c1coc(S(=O)(=O)NC(=O)Cn2ncc3ccccc32)c1` [Example 89, N-((4-(2-Hydroxypropan-2-yl)furan-2-yl)sulfonyl)-2-(1H-indazol-1-yl)acetamide] stands 1000 to 5000 nM; under `CC(C)(O)c1coc(S(=O)(=O)NC(=O)Cc2noc3ccccc23)c1` [Example 90, 2-(Benzo[d]isoxazol-3-yl)-N-((4-(2-hydroxypropan-2-yl)furan-2-yl)sulfonyl)acetamide], 1000 to 5000 nM.
The same measure, in the same setting: under `CC(C)(O)c1coc(S(=O)(=O)NC(=O)Cc2cc(Cl)cc(OC(F)(F)F)c2)c1` [Example 91, 2-(3-Chloro-5-(trifluoromethoxy)phenyl)-N-((4-(2-hydroxypropan-2-yl)furan-2-yl)sulfonyl)acetamide] stands 1000 to 5000 nM.
With `CC(C)(O)c1coc(S(=O)(=O)NC(=O)Cc2cc(Cl)cc(C(F)(F)F)c2)c1` [Example 92, 2-(3-Chloro-5-(trifluoromethyl)phenyl)-N-((4-(2-hydroxypropan-2-yl)furan-2-yl)sulfonyl)acetamide], the IC50 at NLRP3 [1] is 5000 to 10000 nM.
With `CC(C)(O)c1coc(S(=O)(=O)NC(=O)Cc2cccc(I)c2)c1` [Example 93, N-((4-(2-Hydroxypropan-2-yl)furan-2-yl)sulfonyl)-2-(3-iodophenyl)acetamide], at NLRP3 [1], the IC50 lay within 5000 to 10000 nM.
The same measure, in the same setting: under `Cc1cc(Br)cc(CC(=O)NS(=O)(=O)c2cc(C(C)(C)O)co2)c1` [Example 94, 2-(3-Bromo-5-methylphenyl)-N-((4-(2-hydroxypropan-2-yl)furan-2-yl)sulfonyl)acetamide] stands 1000 to 5000 nM; under `COc1cc(-c2cc(F)cc(C(C)C)c2CC(=O)Nc2ncco2)ccn1` [Example 95, 2-(4-Fluoro-2-isopropyl-6-(2-methoxypyridin-4-yl)phenyl)-N-(oxazol-2-yl)acetamide], 5000 to 10000 nM; under `CC(C)c1cc(F)cc(C(C)C)c1CC(=O)NS(=O)(=O)c1ccc2ccccc2c1` [Example 96, 2-(4-Fluoro-2,6-diisopropylphenyl)-1-(2-naphthylsulfonylamino)-1-ethanone], 1000 to 5000 nM.
In the case of `CCOC(=O)CNC(=O)Nc1c2c(cc(C)c1-c1ccnc(OC3CCN(C)CC3)c1)CCC2` [Example 97, Ethyl 2-(3-(6-methyl-5-(2-((1-methylpiperidin-4-yl)oxy)pyridin-4-yl)-2,3-dihydro-1H-inden-4-yl)ureido)acetate], the concentration for half-maximal inhibition (IC50) on NLRP3 [1] fell in the range of 1000 to 5000 nM.
Regarding `CC(C)(O)c1coc(S(=O)(=O)NC(=O)Cc2cc(C(F)(F)F)cc(C(F)(F)F)c2)c1` [Example 98, 2-(3,5-bis(Trifluoromethyl)phenyl)-N-((4-(2-hydroxy-propan-2-yl)furan-2-yl)sulfonyl)acetamide], at NLRP3 [1], the IC50 is 1000 to 5000 nM.

The values are drawn from US20220106289A1, “NLRP3 INHIBITORS” (INFLAZOME LIMITED, priority 2018, published 2022).
